Results on two compounds are retold here after ChEMBL document CHEMBL1149602, “Impaired mutagenic activities of MPDP(+) (1-methyl-4-phenyl-2,3-dihydropyridinium) and MPP(+) (1-methyl-4-phenylpyridinium) due to their interactions with methylxanthines” (2007).

What all share (format): functional
Assay [1] deals with Vibrio harveyi. Briefly: Effect on 1-methyl-4-phenyl-2,3-dihydropyridinium-induced mutagenicity in Vibrio harveyi BB7XM assessed as number of neomycin-resistant mutants at 1000 uM.
Assay [2] deals with Vibrio harveyi. Briefly: Effect on 1-methyl-4-phenylpyridinium-induced mutagenicity in Vibrio harveyi BB7XM assessed as number of neomycin-resistant mutants at 10 uM.
Assay [3] deals with Vibrio harveyi. Briefly: Effect on 1-methyl-4-phenylpyridinium-induced mutagenicity in Vibrio harveyi BB7XM assessed as number of neomycin-resistant mutants at 500 uM.
Assay [4] relates to Vibrio harveyi. The assay is described as follows: Effect on 1-methyl-4-phenylpyridinium-induced mutagenicity in Vibrio harveyi BB7XM assessed as number of neomycin-resistant mutants at 100 uM.
The subject of assay [5] is Vibrio harveyi. The assay is described as follows: Effect on 1-methyl-4-phenyl-2,3-dihydropyridinium-induced mutagenicity in Vibrio harveyi BB7XM assessed as number of neomycin-resistant mutants at 500 uM.
Assay [6] has as its system Vibrio harveyi. Briefly: Effect on 1-methyl-4-phenyl-2,3-dihydropyridinium-induced mutagenicity in Vibrio harveyi BB7XM assessed as number of neomycin-resistant mutants at 100 uM.
Assay [7] deals with Vibrio harveyi. Briefly: Effect on 1-methyl-4-phenyl-2,3-dihydropyridinium-induced mutagenicity in Vibrio harveyi BB7XM assessed as number of neomycin-resistant mutants at 10 uM.
In assay [8] the test system is Vibrio harveyi. Briefly: Effect on 1-methyl-4-phenylpyridinium-induced mutagenicity in Vibrio harveyi BB7XM assessed as number of neomycin-resistant mutants at 1000 uM.

The structures appear in SMILES notation.

Consider `Cn1c(=O)c2c(ncn2C)n(C)c1=O` [CAFFEINE], for which the Activity in assay [1] worked out at 47; in assay [2], 103; in assay [3], 31; in assay [4], 50; in assay [5] it was 51; in assay [6] it was 70. Moreover, the Activity was 293 in assay [7] and 7 in assay [8].

As for `CC(=O)CCCCn1c(=O)c2c(ncn2C)n(C)c1=O` [PENTOXIFYLLINE], the Activity in assay [1] was 51; in assay [2], 116; in assay [3], 52; in assay [4], 78; in assay [5], 77; in assay [6], 143. The Activity in assay [7] came to 278; in assay [8], 24.
